In patent US10392347B2, “2,4-dihydroxy-nicotinamides as APJ agonists” (BRISTOL-MYERS SQUIBB COMPANY, priority 2015, dated 2019):
Where two headings read alike, the source gives them in different places.

Biological target: T1, human APJ receptor (Homo sapiens, UniProt P35414)
T1 construct: expressed in transfected cells
T1 sequence (P35414 1-380): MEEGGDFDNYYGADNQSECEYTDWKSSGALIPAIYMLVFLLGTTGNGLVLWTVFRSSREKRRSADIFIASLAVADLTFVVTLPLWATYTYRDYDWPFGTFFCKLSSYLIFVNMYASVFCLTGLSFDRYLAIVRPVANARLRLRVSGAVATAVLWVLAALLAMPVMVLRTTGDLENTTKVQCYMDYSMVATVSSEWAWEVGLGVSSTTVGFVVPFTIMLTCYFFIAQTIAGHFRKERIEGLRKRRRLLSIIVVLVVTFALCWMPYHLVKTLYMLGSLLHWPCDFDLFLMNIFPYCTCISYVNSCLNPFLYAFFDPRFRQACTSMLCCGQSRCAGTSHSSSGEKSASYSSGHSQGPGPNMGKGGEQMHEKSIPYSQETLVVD
Experiment: Intracellular cAMP accumulation assay (APJ hcAMP, HTRF)
Assay type: cell-based
Settings: HEK293 cells stably expressing human APJ, forskolin-stimulated cAMP
Procedure, shortened: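 Inhibition of forskolin (2 μM)-stimulated cAMP, with […], was measured after 30 min compound exposure at room temperature in stably transfected HEK293 cells. HTRF ratios were converted to cAMP via standard curve, and EC50 values came from variable-slope sigmoidal concentration-response fitting.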

[1] = Table 1, read-out: APJ cAMP EC50

SMILES | EC50 [1] [nM] | other results
CCOCc1nc(O)c(C(=O)N2CCC(c3ncc(F)cc3F)C2)c(O)c1-c1c(OC)cccc1OC (stereo not shown) [Example 85, 3-[3-(3,5-difluoropyridin-2-yl)pyrrolidine-1-carbonyl]-5-(2,6-dimethoxyphenyl)-6-(ethoxymethyl)pyridine-2,4-diol] | – | EC50 (Table 3, read-out: APJ cAMP EC50): 0.01 to 10 nM
CCCCc1nc(O)c(C(=O)N2CCC(c3nc4ccccc4o3)CC2)c(O)c1-c1c(OC)cccc1OC [Example 32, 3-[4-(1,3-benzoxazol-2-yl)piperidine-1-carbonyl]-6-butyl-5-(2,6-dimethoxyphenyl)pyridine-2,4-diol] | 10 to 100 | –
CCCCc1nc(O)c(C(=O)N2CCC(c3ncc(F)cc3F)C2)c(O)c1-c1cccc(C(C)C)c1 (stereo not shown) [Example 140, 6-butyl-3-[3-(3,5-difluoropyridin-2-yl)pyrrolidine-1-carbonyl]-5-[3-(propan-2-yl)phenyl]pyridine-2,4-diol] | – | EC50 (Table 7, read-out: Human cAMP EC50): 0.01 to 10 nM
CCOCc1nc(O)c(C(=O)N2CCC(c3ccc(F)cc3F)C2)c(O)c1-c1c(OC)cccc1OC (stereo not shown) [Example 131] | – | EC50 (Table 6, read-out: Human cAMP EC50): 0.01 to 10 nM
CCCCc1nc(O)c(C(=O)N2CCN(Cc3cc(F)ccc3F)CC2)c(O)c1-c1c(OC)cccc1OC [Example 122, 6-butyl-3-{4-[(2,5-difluorophenyl)methyl]piperazine-1-carbonyl}-5-(2,6-dimethoxyphenyl)pyridine-2,4-diol] | – | EC50 (Table 4, read-out: Human cAMP EC50): 0.01 to 10 nM
CCCCc1nc(O)c(C(=O)N2CCN(c3ccccc3OC)CC2)c(O)c1-c1c(OC)cccc1OC [Example 12, 6-butyl-5-(2,6-dimethoxyphenyl)-3-[4-(2-methoxyphenyl)piperazine-1-carbonyl]pyridine-2,4-diol] | 0.01 to 10 | –
CCCCc1[nH]c(=O)c(C(=O)N2CC[C@@H](c3ccccc3)C2)c(O)c1-c1c(OC)cccc1OC [Example 29, 6-butyl-5-(2,6-dimethoxyphenyl)-3-[(3S)-3-phenylpyrrolidine-1-carbonyl]pyridine-2,4-diol] | – | EC50 (APJ cAMP EC50 (nM), Table 1): 0.01 to 10 nM
CCCCc1nc(O)c(C(=O)N2CCN(c3ccc(OC)cc3)CC2)c(O)c1-c1c(OC)cccc1OC [Example 18, 6-butyl-5-(2,6-dimethoxyphenyl)-3-[4-(4-methoxyphenyl)piperazine-1-carbonyl]pyridine-2,4-diol] | 10 to 100 | –
CCCCc1nc(O)c(C(=O)N2CCN(Cc3ccc(Cl)cc3)CC2)c(O)c1-c1c(OC)cccc1OC [Example 31, 6-butyl-3-{4-[(4-chlorophenyl)methyl]piperazine-1-carbonyl}-5-(2,6-dimethoxyphenyl)pyridine-2,4-diol] | 0.01 to 10 | –
CCCCc1nc(O)c(C(=O)N2CCC(c3noc4cc(F)ccc34)CC2)c(O)c1-c1c(OC)cccc1OC [Example 65, 6-butyl-5-(2,6-dimethoxyphenyl)-3-[4-(6-fluoro-1,2-benzoxazol-3-yl)piperidine-1-carbonyl]pyridine-2,4-diol] | 10 to 100 | –
CCCCc1nc(O)c(C(=O)N2CCN(c3nc(-c4ccccc4)ns3)CC2)c(O)c1-c1c(OC)cccc1OC [Example 60, 6-butyl-5-(2,6-dimethoxyphenyl)-3-[4-(3-phenyl-1,2,4-thiadiazol-5-yl)piperazine-1-carbonyl]pyridine-2,4-diol] | 10 to 100 | –
CCCCc1nc(O)c(C(=O)N2CCC(c3ccccc3)CC2)c(O)c1-c1c(OC)cccc1OC [Example 62, 6-butyl-5-(2,6-dimethoxyphenyl)-3-(4-phenylpiperidine-1-carbonyl)pyridine-2,4-diol] | 10 to 100 | –
CCCCc1nc(O)c(C(=O)N2CCC(c3cccc(Cl)c3)CC2)c(O)c1-c1c(OC)cccc1OC [Example 56, 6-butyl-3-[4-(3-chlorophenyl)piperidine-1-carbonyl]-5-(2,6-dimethoxyphenyl)pyridine-2,4-diol] | 10 to 100 | –
